From patent US10568893B2, “Methods for treating inflammation, autoimmune disorders and pain” (BRIGHAM YOUNG UNIVERSITY, priority 2013, dated 2020)

What was measured:
[1] = tested on: IL1A (Interleukin-1 alpha); experiment: Inflammation gene regulation, mRNA q-PCR panel; format: cell-based; details: mRNA by q-PCR, 8 hours treatment, primary human MSC (dendritic cells also described); CSA-13 at 5.0 μM
Source text: (§1) Cells were purchased from Lonza.com and used fresh for each test using recommended media and culture conditions. After treatment, mRNA was isolated using Qiagen RNeasy Mini Kit®, and quantified using a NanoDrop 2000® by UV at 260 nm and 260/280 ratio for purity. cDNA was made using a First Strand Kit® from SABiosciences and processed for real time PCR using a kit from the same company for selected analysis of wound healing pathways. Results from q-PCR were uploaded to the SABiosciences site and to Ingenuity.com web site for analysis and pathway mapping. On day 1, primary human MSC cells were plated at 200,000 cells/well using 6-well plates with 3 ml of recommended media—hMSC Basal Medium+BulletKit (50 ml Growth Supplement, 10 ml L-Glutamine and 0.5 ml Gentamicin Sulfate Amphotercin-B) for 24 hours. Only early passages of cells were used, and never from frozen stock. On day 2, cells were treated with compounds dissolved in DMSO diluted 1:1000 or more to avoid effects of the solvent. […] Treatment lasted 8 hours, and was followed by RNA isolation using QIAGEN RNeasy Mini Kit® (74104). RNA was measured at 260/280 nm using a NanoDrop 2000® and normalized to 2.4 ng per well, cDNA preparation was done using QIAGEN First Strand kit 330401. q-PCR was run as absolute quantification and threshold set at 0.1 units. Dendritic cells were plated at 500,000 cells/well using 24-well plate with 500 μl of Lonza LGM-3 Complete Growth Medium with and without compound. Treatment lasted 8 hours, and was followed by RNA isolation using QIAGEN RNeasy Mini Kit® (74104). RNA was measured at 260/280 nm using NanoDrop2000® and normalized to 2.4 ng per well, cDNA preparation was done using QIAGEN First Strand kit 330401. PCR was run as absolute quantification and threshold set at 0.1 units.

[2] = tested on: IL1B (Interleukin-1 beta); experiment: Inflammation gene regulation, mRNA q-PCR panel; format: cell-based; details: mRNA by q-PCR, 8 hours treatment, primary human MSC (dendritic cells also described); CSA-13 at 5.0 μM
Source text: as §1

[3] = tested on: IRAK2 (Interleukin-1 receptor-associated kinase 2); experiment: Inflammation gene regulation, mRNA q-PCR panel; format: cell-based; details: mRNA by q-PCR, 8 hours treatment, primary human MSC (dendritic cells also described); CSA-13 at 5.0 μM
Source text: as §1

[4] = tested on: NFKB1 (Nuclear factor of kappa light polypeptide gene enhancer in B-cells 1); experiment: Inflammation gene regulation, mRNA q-PCR panel; format: cell-based; details: mRNA by q-PCR, 8 hours treatment, primary human MSC (dendritic cells also described); CSA-13 at 5.0 μM
Source text: as §1

[5] = tested on: NFKB2 (Nuclear factor of kappa light polypeptide gene enhancer in B-cells 2); experiment: Inflammation gene regulation, mRNA q-PCR panel; format: cell-based; details: mRNA by q-PCR, 8 hours treatment, primary human MSC (dendritic cells also described); CSA-13 at 5.0 μM
Source text: as §1

[6] = tested on: NFKBIA (Nuclear factor of kappa light polypeptide gene enhancer in B-cells inhibitor, alpha); experiment: Inflammation gene regulation, mRNA q-PCR panel; format: cell-based; details: mRNA by q-PCR, 8 hours treatment, primary human MSC (dendritic cells also described); CSA-13 at 5.0 μM
Source text: as §1

[7] = tested on: TLR2 (Toll-like receptor 2); experiment: Inflammation gene regulation, mRNA q-PCR panel; format: cell-based; details: mRNA by q-PCR, 8 hours treatment, primary human MSC (dendritic cells also described); CSA-13 at 5.0 μM
Source text: as §1

[8] = tested on: TLR4 (Toll-like receptor 4); experiment: Inflammation gene regulation, mRNA q-PCR panel; format: cell-based; details: mRNA by q-PCR, 8 hours treatment, primary human MSC (dendritic cells also described); CSA-13 at 5.0 μM
Source text: as §1

[9] = tested on: TLR6 (Toll-like receptor 6); experiment: Inflammation gene regulation, mRNA q-PCR panel; format: cell-based; details: mRNA by q-PCR, 8 hours treatment, primary human MSC (dendritic cells also described); CSA-13 at 5.0 μM
Source text: as §1

[10] = tested on: TLR8 (Toll-like receptor 8); experiment: Inflammation gene regulation, mRNA q-PCR panel; format: cell-based; details: mRNA by q-PCR, 8 hours treatment, primary human MSC (dendritic cells also described); CSA-13 at 5.0 μM
Source text: as §1

[11] = tested on: TLR9 (Toll-like receptor 9); experiment: Inflammation gene regulation, mRNA q-PCR panel; format: cell-based; details: mRNA by q-PCR, 8 hours treatment, primary human MSC (dendritic cells also described); CSA-13 at 5.0 μM
Source text: as §1

[12] = tested on: TNF (Tumor necrosis factor); experiment: Inflammation gene regulation, mRNA q-PCR panel; format: cell-based; details: mRNA by q-PCR, 8 hours treatment, primary human MSC (dendritic cells also described); CSA-13 at 5.0 μM
Source text: as §1

[13] = tested on: TNFRSF1A (Tmor necrosis factor receptor superfamily member 1A); experiment: Inflammation gene regulation, mRNA q-PCR panel; format: cell-based; details: mRNA by q-PCR, 8 hours treatment, primary human MSC (dendritic cells also described); CSA-13 at 5.0 μM
Source text: as §1

alveolar bone loss = details: topical application; cited from earlier work

Compound	Fold Regulation IL1A [1]	Fold Regulation IL1B [2]	Fold Regulation IRAK2 [3]	Fold Regulation NFKB1 [4]	Fold Regulation NFKB2 [5]	Fold Regulation NFKBIA [6]	Fold Regulation TLR2 [7]	Fold Regulation TLR4 [8]	Fold Regulation TLR6 [9]	Fold Regulation TLR8 [10]	Fold Regulation TLR9 [11]	Fold Regulation TNF [12]	Fold Regulation TNFRSF1A [13]	Alveolar bone loss (alveolar bone loss)
CCCCCCCCOC(=O)CC[C@@H](C)[C@H]1CC[C@H]2[C@@H]3[C@H](OC(=O)CCN)C[C@@H]4C[C@H](OC(=O)CCN)CC[C@]4(C)[C@H]3C[C@H](OC(=O)CCN)[C@]12C [CSA-44]	−6.0325	−28.5329	−31.8021	−3.2891	−2.2766	−52.206	−15.7179	−2.977	−2.392	−8.2256	−1.8905	−25.9588	−2.2461	
CCCCCN(CCCCC)CCC[C@@H](C)[C@H]1CC[C@H]2[C@@H]3[C@H](OCCCN)C[C@@H]4C[C@H](OCCCN)CC[C@]4(C)[C@H]3C[C@H](OCCCN)[C@]12C [CSA-90]	−6.96	−3.6734	−52.0069	−4.718	−2.5474	−26.0352	−13.6933	−3.4278	−2.0885	−4.1972	−1.8613	−4.8514	−7.3196	
CN/C(=N/CCSCc1nc[nH]c1C)NC#N [cimetidine]														reduce alveolar bone loss
